What all share (assay type): cell-based
Data set [1] in a line: Cytotoxicity (CC50) in MT4 cells, mock-infected. The following applies: human. As for the experimental part: Infected and uninfected cells are diluted in cell growth medium and 35 μL of 2000 (for MT4) cells is added to each well of the assay plates. Assay plates were then incubated in a 37° C. incubator. After 5 days of incubation, 25 μL of 2× concentrated CellTiter-Glo™ Reagent (catalog # G7573, Promega Biosciences, Inc., Madison, Wis.) was added to each well of the assay plate. Cell lysis was carried out by incubating at room temperature for 2-3 minutes, and then chemiluminescence was read using the Envision reader (PerkinElmer).

The subject of data set [2] is HIV-IIIb. Description: Antiviral assay in MT4 cells. To be noted: Human immunodeficiency virus 1, IIIB, MT4, 120 h. The protocol: 1 mL aliquots of 2×10^6 MT4 cells are pre-infected for 1 and 3 hours respectively at 37° C. with 25 μL (MT4) or of either cell growth medium (mock-infected) or a fresh 1:250 dilution of an HIV-IIIb concentrated ABI stock (0.004 m.o.i. for MT4 cells). Infected and uninfected cells are diluted in cell growth medium and 35 μL of 2000 (for MT4) cells is added to each well of the assay plates.
Assay plates were then incubated in a 37° C. incubator. After 5 days of incubation, 25 μL of 2× concentrated CellTiter-Glo™ Reagent (catalog # G7573, Promega Biosciences, Inc., Madison, Wis.) was added to each well of the assay plate. Cell lysis was carried out by incubating at room temperature for 2-3 minutes, and then chemiluminescence was read using the Envision reader (PerkinElmer).

The target in data set [3] is PXR (NR1I2) (Homo sapiens (Human), UniProt O75469). Briefly: Human PXR activation assay (luciferase reporter, DPX2 cells). The following applies: human. As for the experimental part: Luciferase Reporter Gene Assay.
A stably transformed tumor cell line (DPX2) was plated on 96-well microtiter plates. […]. The number of viable cells was determined and the reporter gene activity was assessed. […]
In general terms: In a reporter assay the amount or activity of a reporter protein is the signal.

The mark [4] stands for this setting: MT4 cells, HIV-IIIb, 5 days, read-out: EC50.
Setting [5] is: 15 uM, DPX2 cells, % Emax relative to rifampicin, adjusted for DMSO background, read-out: PXR % inh at 15 uM (adjusted).

Molecules are shown by their SMILES. pEC50: −log10 of the molar value. Read-outs that look alike come from different tables or passages of the source.

Sequence of PXR (NR1I2) (O75469 whole entry): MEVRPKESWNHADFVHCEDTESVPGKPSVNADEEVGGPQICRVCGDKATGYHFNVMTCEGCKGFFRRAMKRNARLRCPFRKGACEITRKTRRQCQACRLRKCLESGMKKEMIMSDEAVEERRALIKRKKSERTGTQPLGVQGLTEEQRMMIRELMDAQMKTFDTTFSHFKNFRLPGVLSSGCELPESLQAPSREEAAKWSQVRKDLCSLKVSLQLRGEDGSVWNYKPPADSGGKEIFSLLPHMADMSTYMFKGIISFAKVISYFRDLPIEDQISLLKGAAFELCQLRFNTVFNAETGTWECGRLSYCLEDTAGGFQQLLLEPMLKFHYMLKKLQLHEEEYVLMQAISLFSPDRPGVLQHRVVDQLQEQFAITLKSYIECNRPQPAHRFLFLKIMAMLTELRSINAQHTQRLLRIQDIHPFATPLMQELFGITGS

As usually defined, the CC50 is the concentration that lowers cell viability or growth by half. Higher therefore signals better tolerance by the cells. The term pEC50 denotes the negative decadic logarithm of the EC50, by convention in mol/L. `O=C(NCc1c(F)cc(F)cc1F)c1cn2c(c(O)c1=O)C(=O)N[C@@H]1CCCC[C@H]12` [Compound 62] returned a CC50 at 5 days in data set [1] (mock-infected (uninfected)) of 24.2 µM. In addition, the negative-log EC50 (pEC50) in data set [2] (setting [4]) is 8.14. This compound also came in with an inhibition at 24 h, 15 µM in data set [3] of 0%.

Regarding `CN1C(=O)c2c(O)c(=O)c(C(=O)NCc3c(F)cc(F)cc3F)cn2[C@H]2CCC[C@H]21` [Compound 58], the inhibition at 15 µM in data set [3] (setting [5]) came to 25%.

In data set [1] (mock-infected (uninfected)), `CN1C(=O)c2c(O)c(=O)c(C(=O)NCc3ccc(F)c(Cl)c3F)cn2[C@@H]2CCO[C@@H]21` [Compound 27] showed a 50% cytotoxic concentration (CC50) at 5 days of 57.1 µM. Further, the negative-log EC50 (pEC50) in data set [2] (setting [4]) is 8.93.

Compound `CN1C(=O)c2c(O)c(=O)c(C(=O)NCc3ccc(F)c(Cl)c3F)cn2[C@H]2CCOC[C@H]21` [Compound 49] yielded a CC50 at 5 days in data set [1] (mock-infected (uninfected)) of 12 µM. The negative logarithm of the EC50 (pEC50) in data set [2] (setting [4]) is 8.48. Besides, the inhibition at 24 h, 15 µM in data set [3] (setting [5]) was determined as 1%.

Compound `CN1C(=O)c2c(O)c(=O)c(C(=O)NCc3c(F)cc(F)cc3F)cn2[C@@H]2CCCC[C@H]21` [Compound 1] gave a CC50 at 5 days in data set [1] (mock-infected (uninfected)) of 27.3 µM. Besides, the negative-log EC50 (pEC50) in data set [2] (setting [4]) is 8.19. In data set [3], the inhibition at 24 h, 15 µM amounted to 32%.

Consider `CN1C(=O)c2c(O)c(=O)c(C(=O)NCc3c(F)cc(F)cc3F)cn2[C@H]2[C@@H]3C[C@@H]3C[C@H]21` [Compound 53, (6aR,7aR,8aR,8bS)-4-hydroxy-6-methyl-3,5-dioxo-N-(2,4,6-trifluorobenzyl)-5,6,6a,7,7a,8,8a, 8b-octahydro-3H-cyclopropa[3,4]cyclopenta[1,2-e]pyrido[1,2-a]pyrazine-2-carboxamide], for which the CC50 at 5 days in data set [1] (mock-infected) turned out to be 13.3 µM. In data set [2] (setting [4]), the pEC50 is 8.22. Also, in data set [3] (setting [5]), the inhibition at 24 h, 15 µM amounted to 46%.

`CCN1C(=O)c2c(O)c(=O)c(C(=O)NCc3c(F)cc(F)cc3F)cn2[C@H]2CCC3(C[C@H]21)OCCO3` [Compound 40b] gave a cytotoxic concentration (CC50) at 5 days in data set [1] (mock-infected (uninfected)) of 23.1 µM. For the same compound, the negative-log EC50 (pEC50) in data set [2] (setting [4]) was 8.88. The inhibition at 24 h, 15 µM in data set [3] came to 22%.

In turn, `CCN1C(=O)c2c(O)c(=O)c(C(=O)NCc3ccc(F)c(Cl)c3F)cn2[C@H]2COCC[C@H]21` [Compound 57, (4aR,11aR)-N-(3-chloro-2,4-difluorobenzyl)-5-ethyl-7-hydroxy-6,8-dioxo-1,3,4,4a,5,6,8,11a-octahydropyrano[4,3-e]pyrido[1,2-a]pyrazine-9-carboxamide] showed a CC50 at 5 days in data set [1] (mock-infected) of 6.45 µM. Besides, the negative logarithm of the EC50 (pEC50) in data set [2] (setting [4]) is 8.64. For the same compound, in data set [3] (setting [5]), the inhibition at 24 h, 15 µM was 3%.

In data set [1] (mock-infected (uninfected)), `CN1C(=O)c2c(O)c(=O)c(C(=O)NCc3c(F)cc(F)cc3F)cn2[C@H]2COCC[C@]21C(F)F` [Compound 9] registered a 50% cytotoxic concentration (CC50) at 5 days of 11.3 µM. In addition, the negative logarithm of the EC50 (pEC50) in data set [2] was 8.85. The same compound registered an inhibition at 15 µM in data set [3] of 27%.

As to `CN1C(=O)c2c(O)c(=O)c(C(=O)NCc3c(F)cc(F)cc3F)cn2[C@@H]2CCC[C@@H]21` [Compound 29], the inhibition at 15 µM in data set [3] (setting [5]) came out at 49%.

`O=C(NCc1c(F)cc(F)cc1F)c1cn2c(c(O)c1=O)C(=O)N(CC(F)(F)F)[C@@H]1CCCC[C@H]12` [Compound 7] gave a CC50 at 5 days in data set [1] (mock-infected (uninfected)) of 19.8 µM. For the same compound, the pEC50 in data set [2] (setting [4]) is 7.83. Moreover, in data set [3] (setting [5]), the inhibition at 24 h, 15 µM was found to be 36%.

With `O=C(NCc1c(F)cc(F)cc1F)c1cn2c(c(O)c1=O)C(=O)N(CC(F)(F)F)[C@@H]1CCOC[C@H]12` [Compound 8], the CC50 at 5 days in data set [1] (mock-infected (uninfected)) was 57.1 µM. The negative-log EC50 (pEC50) in data set [2] (setting [4]) was 7.78. The inhibition at 24 h, 15 µM in data set [3] (setting [5]) turned out to be 24%.

In turn, `CN1C(=O)c2c(O)c(=O)c(C(=O)NCc3c(F)cc(F)cc3F)cn2[C@@H]2COC[C@H]21` [Compound 46] returned a cytotoxic concentration (CC50) at 5 days in data set [1] (mock-infected (uninfected)) of 28.2 µM. In addition, in data set [2] (setting [4]), the pEC50 is 8.53. In data set [3] (setting [5]), the inhibition at 24 h, 15 µM came to 8%.

`CN1C(=O)c2c(O)c(=O)c(C(=O)NCc3c(F)cc(F)cc3F)cn2[C@@H]2CCOC[C@H]21` [Compound 10] registered a CC50 at 5 days in data set [1] (mock-infected (uninfected)) of 34.9 µM. In data set [2] (setting [4]), the pEC50 was 8.12.

As for `CN1C(=O)c2c(O)c(=O)c(C(=O)NCc3c(F)cc(F)cc3F)cn2[C@@H]2CCCC[C@@H]21` [Compound 3], the CC50 at 5 days in data set [1] (mock-infected (uninfected)) is 11 µM. Moreover, the negative-log EC50 (pEC50) in data set [2] (setting [4]) was 8.53.

Values taken from patent US9795602B2, “Polycyclic-carbamoylpyridone compounds and their pharmaceutical use” (Gilead Sciences, Inc., priority 2014, dated 2017).
